In assay [1] the test system is calpain-specific SBDP150 in nerve fiber layer (NFL). Briefly: SBDP150 immunostaining of flat-mounted retinal explants under hypoxia/reoxygenation. Particulars: H16R8; for Effect on calpain-specific SBDP150-positive staining in NFL: cathepsin inhibitor at 10 or 100 µM. Type of assay: cell-based, rhesus macaques (Macaca mulatta). How it is done: Retina explant culture was performed as described in our previous report, except for the induction of hypoxia. Briefly, a hypoxic chamber (Coy Laboratory Products, Grass Lake, MI, USA) was controlled at 0.3% oxygen with a 95% N2/5% CO2 gas mixture. Retinas were dissected into fan-shaped explants with 6 or 7 petals (> 5 mm) in HBSS. Each explant was placed with the RGC side facing up on a Millicell organotypic standing insert (0.4 μm, 30 mm diameter, MilliporeSigma) in six-well, culture plates. They were cultured for 2 hr at 37°C under 95% N2/5% CO2 in Neurobasal-A medium supplemented with B27, N2 supplements, 2 mM L-glutamine (Thermo Fisher Scientific, Waltham, MA, USA), and 100 μg/mL primocin (Invivogen, San Diego, CA, USA). Retinal explants were then chamber-cultured under hypoxic conditions for 16 hr in a culture medium with 0.5 mM glucose, under 0.3% oxygen. The retinas were then re-oxygenated for 8 hr in a culture medium with 5.5 mM glucose. Normoxic control retinas were cultured for 24 hr in a culture medium with 5.5 mM glucose. When present, calpain inhibitors (SNJ-1945, PD-151746, C2I, and ABT-957) and cathepsin inhibitors (Odanacatib and SID26681509) in 0.1% DMSO were used at the final concentration of 10 or 100 μM in the medium. BAPTA (Thermo Fisher Scientific) and BAPTA-AM (Thermo Fisher Scientific) were also used at a final concentration of 3 or 10 mM or a final concentration of 100 or 500 μM, respectively.
All inhibitors and BAPTA were treated simultaneously with hypoxia induction, and BAPTA-AM treatment was 2 hr before hypoxia induction.
Formalin-fixed retinal explants were incubated overnight at −30°C in 1: 4 dilutions of DMSO-ethanol to promote antibody penetration. The explants underwent two cycles of freezing and thawing between −80°C and room temperature in 100% ethanol for 20 min. The retinas were then rehydrated in 70%, 50%, and 15% ethanol and PBS for 20 min each, followed by overnight incubation with 0.2% Triton X-100. The samples were stained with antibodies specific for calpain-specific SBDP150 [8] (1:100 dilution, Senju Pharmaceutical) and β-III tubulin (a neuron marker, 1:500 dilution, Merck). The nerve fiber layer (NFL) was observed approximately 5 mm from the tips of the fan-shaped retinal flat mounts. Confocal images were taken using a model LSM 880 spectral confocal system with a 20x 0.8 NA lens (Carl Zeiss, Oberkochen, Germany).

Assay [2] concerns the target T1, human recombinant cathepsin K (Homo sapiens, UniProt P43235).
T1 construct: purchased MilliporeSigma
T1 sequence (P43235 115-329): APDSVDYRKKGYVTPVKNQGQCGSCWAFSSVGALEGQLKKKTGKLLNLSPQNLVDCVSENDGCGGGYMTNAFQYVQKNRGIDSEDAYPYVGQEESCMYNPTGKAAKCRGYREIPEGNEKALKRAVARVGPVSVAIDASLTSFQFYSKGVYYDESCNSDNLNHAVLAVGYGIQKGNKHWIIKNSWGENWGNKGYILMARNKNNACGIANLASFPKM
Briefly: In vitro cathepsin inhibitory assay (Z-Phe-Arg-AMC fluorescence). Type of assay: biochemical. Particulars: 20 ng/mL cathepsin K, 20 µM Z-Phe-Arg-AMC, 15 min, 37°C, pH 5.5; mean of two experiments. How it is done: (§1) Cathepsins K, B, and L were selected because of their known roles in cell death and early release following lysosomal membrane permeabilization. The inhibitory activities of cathepsin inhibitors were assessed in vitro using human recombinant cathepsin K (MilliporeSigma), human liver cathepsin B (MilliporeSigma), and human liver cathepsin L (MilliporeSigma). Cathepsins and the cathepsin substrate, Z-Phe-Arg-AMC (PEPTIDE INSTITUTE, INC.), were dissolved in 50 mM sodium acetate buffer (pH 5.5) containing 2 mM dithiothreitol and 2 mM EDTA. A cathepsin K inhibitor, Odanacatib (Selleck Chemicals, Houston, TX, USA), and a cathepsin L inhibitor, SID26681509 (Bio-Techne Corporation), were dissolved in dimethyl sulfoxide (DMSO) (Nacalai Tesque, Kyoto, Japan) before use in the assay. The final concentration of DMSO in the reaction solution was 2%. The cathepsin substrate, 20 µM Z-Phe-Arg-AMC, was incubated for 15 min with 20 ng/mL cathepsin K, 15 ng/mL cathepsin B, or 50 ng/mL cathepsin L, with or without each inhibitor at a final concentration of 0.001 nM to 100 µM in 100 µL of mixed reaction solution in a 96-well plate at 37 °C. The fluorescence was measured using a microplate reader (GloMax Discover System; Promega). IC50 values from two independent experiments were averaged.

The next assay concerns the target T2, human liver cathepsin L (Homo sapiens, UniProt P07711).
T2 construct: human liver cathepsin L (MilliporeSigma); purchased MilliporeSigma; host or cells: human liver
The description is as above. The class given is biochemical. Particulars: 50 ng/mL cathepsin L, 20 µM Z-Phe-Arg-AMC, 15 min, 37°C, pH 5.5; mean of two experiments. How it is done: as §1

In another assay the target is T3, human liver cathepsin B (Homo sapiens, UniProt P07858).
T3 construct: human liver cathepsin B (MilliporeSigma); purchased MilliporeSigma; host or cells: human liver
Described as above. Type of assay: biochemical. Particulars: 15 ng/mL cathepsin B, 20 µM Z-Phe-Arg-AMC, 15 min, 37°C, pH 5.5; mean of two experiments. How it is done:
as §1

In assay [3] the test system is calpain 1 activation and proteolysis of α-spectrin. Set-up: method as in PMID 26393472. Particulars: immunoblotting of hypoxic retinal explants; cited from earlier work. Background: A western blot detects proteins with antibodies after separation by electrophoresis.

SMILES strings stand for the structures.

T2 sequence (P07711 114-333): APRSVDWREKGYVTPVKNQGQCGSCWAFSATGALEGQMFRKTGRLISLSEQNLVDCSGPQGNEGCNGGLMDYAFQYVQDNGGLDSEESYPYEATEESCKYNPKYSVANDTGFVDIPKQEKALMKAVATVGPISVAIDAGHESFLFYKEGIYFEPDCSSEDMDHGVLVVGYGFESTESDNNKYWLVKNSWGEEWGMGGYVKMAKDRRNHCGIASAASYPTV

As usually defined, the IC50 is the concentration that inhibits the measured activity by half. In the case of `CC(C)(F)C[C@H](N[C@@H](c1ccc(-c2ccc(S(C)(=O)=O)cc2)cc1)C(F)(F)F)C(=O)NC1(C#N)CC1` [Odanacatib], the “Effect on calpain-specific SBDP150-positive staining in NFL” value in assay [1] is on record as “Neither Odanacatib nor SID26681509 mitigated the increase”. Further, the IC50 in assay [2] was determined as 0.28 nM; on human liver cathepsin L, 5130 nM; on human liver cathepsin B it was 167 nM.

For `CCc1ccccc1NC(=O)CSC(=O)NNC(=O)[C@H](Cc1c[nH]c2ccccc12)NC(=O)OC(C)(C)C` [SID26681509], the “Effect on calpain-specific SBDP150-positive staining in NFL” value in assay [1] is on record as “Neither Odanacatib nor SID26681509 mitigated the increase”. In addition, the IC50 worked out at 1520 nM in assay [2], 60 nM at human liver cathepsin L and 495 nM on human liver cathepsin B.

On to `COCCOCCOC(=O)N[C@@H](CC(C)C)C(=O)N[C@@H](Cc1ccccc1)C(=O)C(=O)NC1CC1` [SNJ-1945], for which the “Effect on calpain-specific SBDP150 staining in NFL (calpain activation)” value in assay [1] (calpain inhibitor at 100 µM) is recorded as “demonstrated efficacy in reducing calpain activation”. Moreover, in assay [3], the “Effect on autolysis of calpain 1 in hypoxic retinal explants” value is given as “inhibited the autolysis of calpain 1” and the “Effect on autolysis of calpain 2 in hypoxic retinal explants” value is “did not affect”.

Values taken from publication PMC12250347, “Calcium-dependent pathway as a primary cause of hypoxic RGC damage in monkey retinal explants” (PLOS One, 2025).
